How the values were obtained:
velvetleaf = assay: Test A pre-/postemergence herbicide test; type: in vivo, Abutilon theophrasti; settings: 1000 g ai/ha
Summary of the method: (§1)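 Formulated compound (non-phytotoxic solvent, surfactant) sprayed pre- onto soil of seeded loam/sand pots or post- onto seedlings at 1–2 leaves; ~10 d greenhouse; 0–100 visual control rating versus untreated.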

barnyardgrass [1] = assay: Test C flooded paddy test; type: in vivo, Echinochloa crus-galli; settings: Flood
Excerpt: (§2) Plant species in the flooded paddy test consisted of rice (Oryza sativa), sedge, umbrella (small-flower umbrella sedge, Cyperus difformis), ducksalad (Heteranthera limosa), and barnyardgrass (Echinochloa crus-galli) grown to the 2-leaf stage for testing. At time of treatment, test pots were flooded to 3 cm above the soil surface, treated by application of test compounds directly to the paddy water, and then maintained at that water depth for the duration of the test. Treated plants and controls were maintained in a greenhouse for 13 to 15 days, after which time all species were compared to controls and visually evaluated. Plant response ratings, summarized in Table C, are based on a scale of 0 to 100 where 0 is no effect and 100 is complete control. A dash (-) response means no test result.

ducksalad [2] = assay: Test C flooded paddy test; type: in vivo, Heteranthera limosa; settings: Flood
Excerpt: as §2

wheat = assay: Test A pre-/postemergence herbicide test; type: in vivo, Triticum aestivum
Summary of the method: as §1

sedge, umbrella [3] = assay: Test C flooded paddy test; type: in vivo, Cyperus difformis; settings: Flood
Excerpt: as §2

corn = assay: Test A pre-/postemergence herbicide test; type: in vivo, Zea mays
Summary of the method: as §1

barnyardgrass [4] = assay: Test A pre-/postemergence herbicide test; type: in vivo, Echinochloa crus-galli
Summary of the method: as §1

crabgrass, large = assay: Test A pre-/postemergence herbicide test; type: in vivo, Digitaria sanguinalis; settings: 1000 g ai/ha
Summary of the method: as §1

pigweed = assay: Test A pre-/postemergence herbicide test; type: in vivo, Amaranthus retroflexus
Summary of the method: as §1

morningglory = assay: Test A pre-/postemergence herbicide test; type: in vivo, Ipomoea spp.; settings: 1000 g ai/ha
Summary of the method: as §1

rice [5] = assay: Test C flooded paddy test; type: in vivo, Oryza sativa; settings: Flood
Excerpt: as §2

giant foxtail = assay: Test A pre-/postemergence herbicide test; type: in vivo, Setaria faberii
Summary of the method: as §1

blackgrass = assay: Test A postemergence herbicide test; type: in vivo, Alopecurus myosuroides
Summary of the method: (§3)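 Potted in loam soil/sand blend; postemergence application at 1–2 leaf stage (2–10 cm). Greenhouse ~10 d. Visual injury vs untreated, 0–100 scale; 100 = complete control.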

sedge, umbrella [6] = assay: Test B flooded paddy test; type: in vivo, Cyperus difformis; settings: 500 g ai/ha, Flood; scale of 0 to 100 where 0 is no effect and 100 is complete control
Summary of the method: (§4)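 Visual ratings from 0, meaning no effect, up to 100, meaning complete control, were made by comparison with untreated controls 13 to 15 days after treatment. Test compounds went straight into floodwater standing 3 cm over the soil of pots holding 2-leaf seedlings.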

kochia = assay: Test A pre-/postemergence herbicide test; type: in vivo, Kochia scoparia; settings: for Plant response rating, Kochia: 125 g ai/ha
Summary of the method: as §1

rice [7] = assay: Test B flooded paddy test; type: in vivo, Oryza sativa; settings: 500 g ai/ha, Flood; scale of 0 to 100 where 0 is no effect and 100 is complete control
Summary of the method: as §4

ragweed = assay: Test A pre-/postemergence herbicide test; type: in vivo, Ambrosia elatior; settings: for Plant response rating, Ragweed: 125 g ai/ha
Summary of the method: as §1

barnyardgrass [8] = assay: Test B flooded paddy test; type: in vivo, Echinochloa crus-galli; settings: 500 g ai/ha, Flood; scale of 0 to 100 where 0 is no effect and 100 is complete control
Summary of the method: as §4

ryegrass, Italian = assay: Test A pre-/postemergence herbicide test; type: in vivo, Lolium multiflorum; settings: for Plant response rating, Ryegrass, Italian: 125 g ai/ha
Summary of the method: as §1

ducksalad [9] = assay: Test B flooded paddy test; type: in vivo, Heteranthera limosa; settings: 500 g ai/ha, Flood; scale of 0 to 100 where 0 is no effect and 100 is complete control
Summary of the method: as §4

galium = assay: Test A postemergence herbicide test; type: in vivo, Galium aparine; settings: 125 g ai/ha, visual rating on 0 to 100 scale (0 no effect, 100 complete control), approx. 10 days
Summary of the method: as §3

[10] = Postemergence, 0 to 100 scale (0 no effect, 100 complete control)
[11] = Preemergence, visual rating on 0 to 100 scale (0 no effect, 100 complete control), approx. 10 days
[12] = 31 g ai/ha, scale of 0 to 100 where 0 is no effect and 100 is complete control, 13 to 15 days
[13] = 62 g ai/ha, scale of 0 to 100 where 0 is no effect and 100 is complete control, 13 to 15 days
[14] = 125 g ai/ha, scale of 0 to 100 where 0 is no effect and 100 is complete control, 13 to 15 days
[15] = Postemergence, 1000 g ai/ha, 0 to 100 scale (0 no effect, 100 complete control)
[16] = Preemergence, 1000 g ai/ha, visual rating on 0 to 100 scale (0 no effect, 100 complete control), approx. 10 days
[17] = Postemergence, visual rating on 0 to 100 scale (0 no effect, 100 complete control), approx. 10 days
[18] = Preemergence, 0 to 100 scale where 0 is no effect and 100 is complete control
[19] = Preemergence, 500 g ai/ha, visual rating on 0 to 100 scale (0 no effect, 100 complete control)
[20] = Postemergence, 125 g ai/ha, visual rating on 0 to 100 scale (0 no effect, 100 complete control), approx. 10 days
[21] = Postemergence, 500 g ai/ha, 0 to 100 scale (0 no effect, 100 complete control)
[22] = Preemergence, 125 g ai/ha, 0 to 100 scale where 0 is no effect and 100 is complete control

Cc1ccccc1NC(=O)C1C(=O)NCC1c1ccc(F)c(F)c1 (racemic) [Compound 19]
30: Plant response rating, Wheat (wheat; [15])
90: Plant response rating, Barnyardgrass (barnyardgrass [4]; [15]) | Plant response rating, Barnyardgrass (barnyardgrass [4]; [16]) | Plant response rating, Crabgrass, Large (crabgrass, large; [10]) | Plant response rating, Crabgrass, Large (crabgrass, large; [11]) | Plant response rating, Foxtail, Giant (giant foxtail; [16])
80: Plant response rating, Foxtail, Giant (giant foxtail; [15])
0: Plant response rating, Velvetleaf (velvetleaf; [11]) | Plant response rating, Barnyardgrass (barnyardgrass [1]; [12]) | Plant response rating, Barnyardgrass (barnyardgrass [1]; [13]) | Plant response rating, Barnyardgrass (barnyardgrass [1]; [14]) | Plant response rating, Barnyardgrass (barnyardgrass [1]; 250 g ai/ha, scale 0 to 100) | Plant response rating, Ducksalad (ducksalad [2]; [12]) | Plant response rating, Ducksalad (ducksalad [2]; [13]) | Plant response rating, Ducksalad (ducksalad [2]; [14]) | Plant response rating, Ducksalad (ducksalad [2]; 250 g ai/ha, scale 0 to 100) | Plant response rating, Wheat (wheat; [16]) | Plant response rating, Sedge, Umbrella (sedge, umbrella [3]; [12]) | Plant response rating, Sedge, Umbrella (sedge, umbrella [3]; [13]) | Plant response rating, Sedge, Umbrella (sedge, umbrella [3]; [14]) | Plant response rating, Sedge, Umbrella (sedge, umbrella [3]; 250 g ai/ha, scale 0 to 100) | Plant response rating, Corn (corn; [15]) | Plant response rating, Corn (corn; [16]) | Plant response rating, Pigweed (pigweed; [15]) | Plant response rating, Pigweed (pigweed; [16]) | Plant response rating, Morningglory (morningglory; [10]) | Plant response rating, Morningglory (morningglory; [11]) | Plant response rating, Rice (rice [5]; [12]) | Plant response rating, Rice (rice [5]; [13]) | Plant response rating, Rice (rice [5]; [14]) | Plant response rating, Rice (rice [5]; 250 g ai/ha, scale 0 to 100)
10: Plant response rating, Velvetleaf (velvetleaf; [10])

O=C1NCC(c2ccc(Br)c(Br)c2)C1C(=O)Nc1ccccc1Cl (centres unmarked) [Compound 343]
0: Plant response rating, Blackgrass (blackgrass; 125 g ai/ha, visual rating on 0 to 100 scale (0 no effect, 100 complete control), approx. 10 days) | Plant response rating, Blackgrass (blackgrass; 500 g ai/ha, 0 to 100 scale (0 no effect, 100 complete control)) | Plant response rating, Sedge, Umbrella (sedge, umbrella [6]) | Plant response rating, Kochia (kochia; [17]) | Plant response rating, Kochia (kochia; [18]) | Kochia plant response rating (kochia; [19]) | Plant response rating, Rice (rice [7]) | Plant response rating, Ragweed (ragweed; [17]) | Plant response rating, Ragweed (ragweed; [18]) | Ragweed plant response rating (ragweed; [19]) | Plant response rating, Barnyardgrass (barnyardgrass [8]) | Plant response rating, Wheat (wheat; [20]) | Plant response rating, Corn (corn; [20]) | Plant response rating, Corn (corn; [21]) | Plant response rating, Barnyardgrass (barnyardgrass [4]; [20]) | Plant response rating, Ryegrass, Italian (ryegrass, Italian; [17]) | Plant response rating, Ryegrass, Italian (ryegrass, Italian; [18]) | Ryegrass, Italian plant response rating (ryegrass, Italian; [19]) | Plant response rating, Pigweed (pigweed; [20]) | Plant response rating, Pigweed (pigweed; [22]) | Pigweed plant response rating (pigweed; [19]) | Plant response rating, Ducksalad (ducksalad [9]) | Plant response rating, Galium (galium)
60: Plant response rating, Foxtail, Giant (giant foxtail; [21]) | Plant response rating, Foxtail, Giant (giant foxtail; [22])
30: Plant response rating, Barnyardgrass (barnyardgrass [4]; [21]) | Plant response rating, Foxtail, Giant (giant foxtail; [20])
20: Plant response rating, Barnyardgrass (barnyardgrass [4]; [22])
80: Barnyardgrass plant response rating (barnyardgrass [4]; [19]) | Foxtail, Giant plant response rating (giant foxtail; [19])
